In article PMC8303187, “Anti-Inflammatory Effects of Compounds from Cudrania tricuspidata in HaCaT Human Keratinocytes” (International Journal of Molecular Sciences, 2021):

Test system: HaCaT cells
Test: Cell Counting Kit (CCK)-8 cell viability / cytotoxicity assay
Details: CCK-8 assay, 24 h, concentration values that did not result in cytotoxicity
Protocol: The cytotoxicity of the 16 compounds was evaluated using a Cell Counting Kit (CCK)-8 assay on HaCaT cells.
To determine the viability of HaCaT cells, these were maintained at 2 × 10^4 cells/well, treated with the test compounds in the presence or absence of glutamate (5 mM), and cultured for 24 h. Subsequently, a CCK8 assay (Dojindo Laboratories, Kumamoto, Japan) was performed and the cells were incubated for 1 h. The absorbance was then measured at 450 nm.

Row | SMILES | Cytotoxicity
1 | CC(C)=CCc1c(O)cc2c(c1O)C(=O)C[C@@H](c1ccc(O)cc1O)O2 [Compound 4, cudraflavanone B] | >20 µM
2 | CC(C)=CCc1c(O)cc2oc(-c3ccc(O)cc3O)c(CC=C(C)C)c(=O)c2c1O [Compound 6, cudraflavone C] | >5 µM
3 | C=CC(C)(C)c1c(OC)cc2oc3cc(O)c(O)cc3c(=O)c2c1O [Compound 13, 1,6,7-trihydroxy-2-(1,1-dimethyl-2-propenyl)-3-methoxyxanthone] | >40 µM
4 | C=CC(C)(C)c1c(O)cc(O)c2c(=O)c3cc(O)c(O)cc3oc12 [Compound 14, cudratricusxanthone L] | >20 µM

Test system: IL-6 production in TNF-α + IFN-γ-treated HaCaT cells
Test: IL-6 production in TNF-α + IFN-γ-treated HaCaT cells (ELISA)
Assay type: cell-based, human
Details: HaCaT cells pre-treated 3 h, then TNF-α + IFN-γ 24 h; result in words
Source text: The skin consists of two basic layers: the epidermis and dermis. The epidermis is mainly composed of keratinocytes. Pro-inflammatory cytokines are known to play an important role in the immune response in keratinocytes. Previous studies have reported the roles of TNF-α and IFN-γ in inducing NF-κB activation, which upregulates the production of IL-6 and IL-8 [25]. […] Accordingly, the effect of the 16 compounds from C. tricuspidata on IL-6 production in TNF-α + IFN-γ-treated HaCaT cells were determined. Briefly, HaCaT cells were pre-incubated with different concentrations of the 16 compounds for 3 h, and then stimulated with TNF-α + IFN-γ for 24 h.
(§1) The cytokines and chemokines in IL-6, IL-8, CCL17 (TARC), and CCL5 (RANTES) HaCaT cells were detected using an enzyme-linked immunosorbent assay. The levels of these cytokines and chemokines were measured using commercial ELISA kits (BioLegend, San Diego, CA, USA), according to the manufacturer’s instructions.
Figure S2. Effects of the 16 compounds from C. tricuspidata on IL-6 production in TNF-α+IFN-γ-treated HaCaT cells (A, B, and C). Cells were pre-treated with the indicated concentrations of the 16 compounds from C. tricuspidata for 3 h and then stimulated with TNF-α+IFN-γ (20 ng/mL) for 24 h. IL-6 levels were determined as described in the Materials and Methods section. The results are presented as the mean ± standard deviation of three experiments. *p < 0.05, **p < 0.01, and ***p < 0.001 compared with TNF-

Row | SMILES | IL-6 production
5 | CC(C)=CCc1c(O)cc2c(c1O)C(=O)C[C@@H](c1ccc(O)cc1O)O2 [Compound 4, cudraflavanone B] | significantly decreased
6 | CC(C)=CCc1c(O)cc2oc(-c3ccc(O)cc3O)c(CC=C(C)C)c(=O)c2c1O [Compound 6, cudraflavone C] | significantly decreased
7 | C=CC(C)(C)c1c(OC)cc2oc3cc(O)c(O)cc3c(=O)c2c1O [Compound 13, 1,6,7-trihydroxy-2-(1,1-dimethyl-2-propenyl)-3-methoxyxanthone] | significantly decreased
8 | C=CC(C)(C)c1c(O)cc(O)c2c(=O)c3cc(O)c(O)cc3oc12 [Compound 14, cudratricusxanthone L] | significantly decreased

Same assay, conditions: Homo sapiens; HaCaT cells pre-incubated with compound 3 h, then TNF-α + IFN-γ (20 ng/mL) 24 h; ELISA

Row | SMILES | IC50
9 | CC(C)=CCc1c(O)cc2c(c1O)C(=O)C[C@@H](c1ccc(O)cc1O)O2 [Compound 4, cudraflavanone B] | > 20 µM
10 | CC(C)=CCc1c(O)cc2oc(-c3ccc(O)cc3O)c(CC=C(C)C)c(=O)c2c1O [Compound 6, cudraflavone C] | 2.78 ± 0.75 µM
11 | C=CC(C)(C)c1c(OC)cc2oc3cc(O)c(O)cc3c(=O)c2c1O [Compound 13, 1,6,7-trihydroxy-2-(1,1-dimethyl-2-propenyl)-3-methoxyxanthone] | 9.69 ± 2.15 µM
12 | C=CC(C)(C)c1c(O)cc(O)c2c(=O)c3cc(O)c(O)cc3oc12 [Compound 14, cudratricusxanthone L] | 9.86 ± 0.92 µM

Test system: IκBα phosphorylation in HaCaT cells
Test: Phosphorylation of IκBα in TNF-α + IFN-γ-treated HaCaT cells (Western blotting)
Assay type: cell-based, human
Details: HaCaT cells pretreated 3 h, then TNF-α + IFN-γ (20 ng/mL) 10 min; Western blot
Source text: (§2) The activation of NF-κB by TNF-α and/or IFN-γ results from high levels of IκB phosphorylation and the degradation of IκB in keratinocytes. NF-κB–mediated inflammation is a significant component of innate immunity and seems to be a final common pathway for the aggravation of the inflammatory response to stimuli in immune diseases of the skin [56]. To determine the potential mechanisms of the inhibition of TNF-α + IFN-γ-induced pro-inflammatory enzyme and the mediator levels by the six compounds from C. tricuspidata, their effects on the phosphorylation and degradation of cytoplasmic IκBα and on p65 translocation to the nucleus were investigated. […] In addition, compounds 13, 4, and 14 inhibited the phosphorylation of IκBα (Figure 5C,D). When HaCaT cells were exposed to TNF-α + IFN-γ, NF-κB p65 translocated from the cytoplasm to the nucleus.
(§3) Figure 5 Effects of the six compounds from C. tricuspidata on the degradation of IκB-α (A,B), the phosphorylation of IκBα (C,D), and the translocation of NF-κB p65 to the nucleus (E,F) in HaCaT cells. Cells were pretreated with the six compounds from C. tricuspidata at the indicated concentrations for 3 h and stimulated with TNF-α + IFN-γ (20 ng/mL) for 10 min. IκBα, p-IκBα, and NF-κB p65 were analyzed using Western blotting, as described in the Materials and Methods section. Representative blots from four independent experiments are presented. The immunoblots were quantified using ImageJ software. The band intensity was normalized to that of actin or anti-proliferating cell nuclear antigen (PCNA). * p < 0.05, ** p < 0.01, *** p < 0.001 compared with TNF-α + IFN-γ only.
Cells were harvested and pelleted via centrifugation at 200× g for 3 min, washed with PBS, and lysed in 20 mM Tris-HCl buffer (pH 7.4) containing a protease inhibitor mixture (0.1 mM phenylmethanesulfonyl fluoride, 5 mg/mL aprotinin, 5 mg/mL pepstatin A, and 1 mg/mL chymostatin). The protein concentration was determined using a protein assay dye reagent concentrate (#5000006; Bio-Rad Laboratories, Hercules, CA, USA). […]

Row | SMILES | phosphorylation of IκBα
13 | CC(C)=CCc1c(O)cc2c(c1O)C(=O)C[C@@H](c1ccc(O)cc1O)O2 [Compound 4, cudraflavanone B] | inhibited
14 | C=CC(C)(C)c1c(OC)cc2oc3cc(O)c(O)cc3c(=O)c2c1O [Compound 13, 1,6,7-trihydroxy-2-(1,1-dimethyl-2-propenyl)-3-methoxyxanthone] | inhibited
15 | C=CC(C)(C)c1c(O)cc(O)c2c(=O)c3cc(O)c(O)cc3oc12 [Compound 14, cudratricusxanthone L] | inhibited

Test system: IκBα degradation in HaCaT cells
Test: Degradation of cytoplasmic IκBα in TNF-α + IFN-γ-treated HaCaT cells (Western blotting)
Assay type: cell-based, human
Details: HaCaT cells pretreated 3 h, then TNF-α + IFN-γ (20 ng/mL) 10 min; Western blot
Source text: as §2, §3
(§4) Cells were harvested and pelleted via centrifugation at 200× g for 3 min, washed with PBS, and lysed in 20 mM Tris-HCl buffer (pH 7.4) containing a protease inhibitor mixture (0.1 mM phenylmethanesulfonyl fluoride, 5 mg/mL aprotinin, 5 mg/mL pepstatin A, and 1 mg/mL chymostatin). The protein concentration was determined using a protein assay dye reagent concentrate (#5000006; Bio-Rad Laboratories, Hercules, CA, USA). A total of 30 micrograms of protein from each sample was resolved using 7.5% and 12% sodium dodecyl sulfate-polyacrylamide gel electrophoresis. Thereafter, the proteins were electrophoretically transferred onto Hybond enhanced chemiluminescence (ECL) nitrocellulose membranes (Bio-Rad Laboratories). The membranes were blocked with 5% skimmed milk, and sequentially incubated with the relevant primary antibody and horseradish peroxidase-conjugated secondary antibody, prior to ECL detection (Pierce Biotechnology, Rockford, IL, USA).
(§5) HaCaT cells were homogenized in PER-Mammalian Protein Extraction Buffer (1:20, w:v) (Pierce Biotechnology, Rockford, IL, USA) containing freshly added protease inhibitor cocktail I (EMD Biosciences, San Diego, CA, USA) and 1 mM phenylmethanesulfonyl fluoride. The cytosolic fractions were prepared using centrifugation at 16,000× g for 5 min at 4 °C, while the nuclear and cytoplasmic cell extracts were prepared using NE-PER nuclear and cytoplasmic extraction reagents, respectively (Pierce Biotechnology, Rockford, IL, USA).

Row | SMILES | degradation of IκBα in the cytoplasm
16 | CC(C)=CCc1c(O)cc2c(c1O)C(=O)C[C@@H](c1ccc(O)cc1O)O2 [Compound 4, cudraflavanone B] | inhibit
17 | CC(C)=CCc1c(O)cc2oc(-c3ccc(O)cc3O)c(CC=C(C)C)c(=O)c2c1O [Compound 6, cudraflavone C] | inhibit
18 | C=CC(C)(C)c1c(OC)cc2oc3cc(O)c(O)cc3c(=O)c2c1O [Compound 13, 1,6,7-trihydroxy-2-(1,1-dimethyl-2-propenyl)-3-methoxyxanthone] | inhibit
19 | C=CC(C)(C)c1c(O)cc(O)c2c(=O)c3cc(O)c(O)cc3oc12 [Compound 14, cudratricusxanthone L] | inhibit

Test system: IL-8 production in TNF-α + IFN-γ-treated HaCaT cells
Test: IL-8 production in TNF-α + IFN-γ-treated HaCaT cells (ELISA)
Assay type: cell-based, human
Details: HaCaT cells pre-treated 3 h, then TNF-α + IFN-γ 24 h; result in words
Protocol: Next, the effect of the 16 compounds from C. tricuspidata on IL-8 production in HaCaT cells were determined. Briefly, HaCaT cells were pre-incubated with different concentrations of the 16 compounds for 3 h. Thereafter, the cells were subjected to TNF-α + IFN-γ stimulation for 24 h. […] Compound 2, with its flavanone skeletons, has been studied for its cyclooxygenase and tyrosinase inhibitory effects. In a previous study, compound 2 altered the anti-neuroinflammatory response in microglia. Compound 6, a prenylated flavanone, has been reported to have apoptotic effects on A375.S2 melanoma cells and to lead to the induction of apoptotic cell death in KM12, Caco-2, HT29, HCC2998, HCT116, and SW48 cell lines. […] This is the first report on the biological action of compounds 2, 6, 12, 13, 4, and 14 on the inhibitory effects of skin inflammatory factors in skin HaCaT cells. Therefore, further mechanism studies of these six compounds in HaCaT cells were conducted.
as §1
Figure S3. Effects of the 16 compounds from C. tricuspidata on IL-8 (A, B, and C) production in TNF-α+IFN-γ-treated HaCaT cells. The cells were pre-treated with the indicated concentrations of the C. tricuspidata compounds for 3 h, and then stimulated with TNF-α+IFN-γ (20 ng/mL) for 24 h. […] levels were determined as described in the Materials and Methods section. Data are expressed as the mean ± standard deviation of three experiments. *p < 0.05, **p < 0.01, and ***p < 0.001 compared with TNF- […]
(1 picture or pasted object on this page, not shown here)

Row | SMILES | IL-8 production
20 | CC(C)=CCc1c(O)cc2c(c1O)C(=O)C[C@@H](c1ccc(O)cc1O)O2 [Compound 4, cudraflavanone B] | decreased
21 | CC(C)=CCc1c(O)cc2oc(-c3ccc(O)cc3O)c(CC=C(C)C)c(=O)c2c1O [Compound 6, cudraflavone C] | decreased
22 | C=CC(C)(C)c1c(OC)cc2oc3cc(O)c(O)cc3c(=O)c2c1O [Compound 13, 1,6,7-trihydroxy-2-(1,1-dimethyl-2-propenyl)-3-methoxyxanthone] | decreased
23 | C=CC(C)(C)c1c(O)cc(O)c2c(=O)c3cc(O)c(O)cc3oc12 [Compound 14, cudratricusxanthone L] | decreased

Same assay, conditions: Homo sapiens; HaCaT cells pre-incubated with compound 3 h, then TNF-α + IFN-γ (20 ng/mL) 24 h; ELISA

Row | SMILES | IC50
24 | CC(C)=CCc1c(O)cc2c(c1O)C(=O)C[C@@H](c1ccc(O)cc1O)O2 [Compound 4, cudraflavanone B] | 9.88 ± 3.22 µM
25 | CC(C)=CCc1c(O)cc2oc(-c3ccc(O)cc3O)c(CC=C(C)C)c(=O)c2c1O [Compound 6, cudraflavone C] | 2.16 ± 0.5 µM
26 | C=CC(C)(C)c1c(OC)cc2oc3cc(O)c(O)cc3c(=O)c2c1O [Compound 13, 1,6,7-trihydroxy-2-(1,1-dimethyl-2-propenyl)-3-methoxyxanthone] | 3.87 ± 0.96 µM
27 | C=CC(C)(C)c1c(O)cc(O)c2c(=O)c3cc(O)c(O)cc3oc12 [Compound 14, cudratricusxanthone L] | 3.7 ± 0.7 µM

Test system: NF-κB p65 translocation to the nucleus in HaCaT cells
Test: NF-κB p65 translocation to the nucleus in TNF-α + IFN-γ-treated HaCaT cells (Western blotting)
Assay type: cell-based, human
Details: HaCaT cells pretreated 3 h, then TNF-α + IFN-γ (20 ng/mL) 10 min; Western blot
Source text: as §2, §3, §4, §5

Row | SMILES | NF-κB p65 translocation to the nucleus
28 | CC(C)=CCc1c(O)cc2c(c1O)C(=O)C[C@@H](c1ccc(O)cc1O)O2 [Compound 4, cudraflavanone B] | significantly inhibited
29 | CC(C)=CCc1c(O)cc2oc(-c3ccc(O)cc3O)c(CC=C(C)C)c(=O)c2c1O [Compound 6, cudraflavone C] | significantly inhibited
30 | C=CC(C)(C)c1c(OC)cc2oc3cc(O)c(O)cc3c(=O)c2c1O [Compound 13, 1,6,7-trihydroxy-2-(1,1-dimethyl-2-propenyl)-3-methoxyxanthone] | no significant effect
31 | C=CC(C)(C)c1c(O)cc(O)c2c(=O)c3cc(O)c(O)cc3oc12 [Compound 14, cudratricusxanthone L] | significantly inhibited
